Laboratory results published in patent publication US20250270445A1, “COMPOUNDS AND USES THEREOF IN FIELD OF OPTOELECTRONICS” (Zhejiang Brilliant Optoelectronic Technology Co.,Ltd., priority 2022, published 2025).

Columns and labels:
Assay type in all cases: physicochemical
[1] = UV stability of compounds in toluene (absorbance decay to 80%); conditions: 1×10^−5 mol/L in toluene, UV LEDs 365 nm & 255 nm, time to 80% absorbance, normalized to comparative compound 2 as 100%
Description: The compound was dissolved in the toluene with a concentration of 1×10^−5 mol/L. 3 mL solution was added to the cuvette with a lid and the lid was screwed on tightly, then the cuvette was placed in the ultraviolet-visible spectrophotometer to test the absorption spectrum, the absorbance of the maximum absorption peak was recorded as the initial value. The cuvette was placed at a distance of 12 cm from the UV LEDs (365 nm & 255 nm), irradiated for a period and tested its absorption spectrum, then continued to be irradiated after the test, and repeated until the absorbance decayed to 80% of its initial value, the time was recorded as t80.

[2] = Absorption and emission spectrum in spin-coated film; conditions: spin-coated film
Description: The absorption and emission spectrums of the compounds in the film were determined as follows: • 1. The compound with a certain concentration in the toluene was prepared. • 2. The prepared toluene solution was dropped onto a clean glass substrate. • 3. Spin-coating, and then heating at the 80° C. for 1 min. • 4. The absorption spectrum of the film was measured by using an ultraviolet-visible spectrophotometer (Puxi T9s) to obtain the absorption peak wavelength. • 5. The emission spectrum of the film was measured by using a fluorescent spectroscope (Hitachi, F-4700 FL Spectrophotometer) to obtain the emission peak wavelength.

[3] = Absorption spectrum, emission spectrum and extinction coefficient in toluene solution; conditions: for Molar extinction coefficient of the toluene solution: maximum absorption peak
Description: The extinction coefficients of the compounds and their absorption and emission spectrums in the solution were determined as follows: • 1. The compound with a certain amount of substance concentration in the toluene was prepared in a volumetric flask. • 2. The absorption spectrum of the solution was measured by using an ultraviolet-visible spectrophotometer (Puxi T9s) to obtain the absorption peak wavelength. • 3. The absorbance of the maximum absorption peak divided by the amount of substance concentration is the molar extinction coefficient of the compound. • 4. The emission spectrum of the solution was measured by using a fluorescent spectroscope (Hitachi, F-4700 FL Spectrophotometer) to obtain the emission peak wavelength.

[4] = Solubility of compounds in toluene
Description: The solubility of the compounds in the toluene were determined as follows: • 1. 1000 mg of toluene solution was placed in the transparent glass sample bottle. • 2. A certain mass of the compound was added into the toluene, and oscillated until completely dissolved. • 3. After the compound was completely dissolved, a certain mass of the compound was further added into the toluene, and oscillated. • 4. The above steps were repeated until the compound wasn't dissolved any more. • 5. The total mass of the compound added was recorded and the solubility was obtained by calculation.

Q: Which “Times t80” value [1] does the source give for `c1ccc(N(c2ccc(-c3ccc(N(c4ccccc4)c4ccc5c(c4)c4ccccc4n5-c4ccccc4)cc3)cc2)c2ccc3c(c2)c2ccccc2n3-c2ccccc2)cc1` [comparative compound 2, reference compound] here?
A: The value was 100%.

Q: Which results are given for `Cc1cccc(C)c1N(c1ccccc1)c1cc(N(c2ccccc2)c2c(C)cccc2C)c2ccc3c(N(c4ccccc4)c4c(C)cccc4C)cc(N(c4ccccc4)c4c(C)cccc4C)c4ccc1c2c43` [compound 1]?
A: Absorption peak of the film [2]: 477 nm; Emission peak of the film [2]: 497 nm; Times t80 [1]: 190%; Absorption peak of the toluene solution [3]: 475 nm; Emission peak of the toluene solution [3]: 490 nm; Molar extinction coefficient of the toluene solution [3]: 6.0 × 10^4 L · mo 1^−1; Solubilities(/100 g, toluene) [4]: 1.5 g/100 g toluene

Q: Which “Absorption peak of the film” value [2] does the source give for `Cc1cccc(C)c1N(c1ccc(C(C)(C)C)cc1)c1cc(N(c2ccc(C(C)(C)C)cc2)c2c(C)cccc2C)c2ccc3c(N(c4ccc(C(C)(C)C)cc4)c4c(C)cccc4C)cc(N(c4ccc(C(C)(C)C)cc4)c4c(C)cccc4C)c4ccc1c2c43` [compound 3] here?
A: The value was 479 nm.

Q: What about the “Emission peak of the film” value [2] of the same compound?
A: The value was 497 nm.

Q: What about the “Times t80” value [1] of the same compound?
A: Its value is 212%.

Q: What about the “Absorption peak of the toluene solution” value [3] of the same compound?
A: Its value is 477 nm.

Q: And the “Emission peak of the toluene solution” value [3]?
A: Its value is 495 nm.

Q: And the “Molar extinction coefficient of the toluene solution” value (“Molar extinction coefficient” for short) [3]?
A: The value was 3.0 × 10^4 L · mo 1^−1.

Q: And the “Solubilities(/100 g, toluene)” value [4]?
A: The value was 4.2 g/100 g toluene.

Q: Which “Absorption peak of the film” value [2] does the source give for `CC(C)c1ccc(-c2cc(-c3cc(C(C)(C)C)cc(C(C)(C)C)c3)ccc2N(c2cc(F)c(F)c(F)c2)c2cc(N(c3cc(F)c(F)c(F)c3)c3ccc(-c4cc(C(C)(C)C)cc(C(C)(C)C)c4)cc3-c3ccc(C(C)C)cc3)c3ccc4c(N(c5cc(F)c(F)c(F)c5)c5ccc(-c6cc(C(C)(C)C)cc(C(C)(C)C)c6)cc5-c5ccc(C(C)C)cc5)cc(N(c5cc(F)c(F)c(F)c5)c5ccc(-c6cc(C(C)(C)C)cc(C(C)(C)C)c6)cc5-c5ccc(C(C)C)cc5)c5ccc2c3c54)cc1` [compound 14] here?
A: The value was 471 nm.

Q: And the “Emission peak of the film” value [2]?
A: Its value is 493 nm.

Q: What about the “Absorption peak of the toluene solution” value [3] of the same compound?
A: Its value is 475 nm.

Q: What about the “Emission peak of the toluene solution” value [3] of the same compound?
A: Its value is 494 nm.

Q: And the “Molar extinction coefficient” value [3]?
A: Its value is 5.1 × 10^4 L · mo 1^−1.

Q: What about the “Solubilities(/100 g, toluene)” value [4] of the same compound?
A: The value was over 5 g/100 g toluene.

Q: With `CCCCCCCCc1ccc(-c2c(N(c3cc(F)c(F)c(F)c3)c3cc(N(c4cc(F)c(F)c(F)c4)c4ccc5ccccc5c4-c4ccc(CCCCCCCC)cc4)c4ccc5c(N(c6cc(F)c(F)c(F)c6)c6ccc7ccccc7c6-c6ccc(CCCCCCCC)cc6)cc(N(c6cc(F)c(F)c(F)c6)c6ccc7ccccc7c6-c6ccc(CCCCCCCC)cc6)c6ccc3c4c65)ccc3ccccc23)cc1` [compound 17] as the compound, how does the “Absorption peak of the film” value [2] read?
A: The value was 476 nm.

Q: And the “Emission peak of the film” value [2]?
A: The value was 497 nm.

Q: What about the “Absorption peak of the toluene solution” value [3] of the same compound?
A: The value was 475 nm.

Q: What about the “Emission peak of the toluene solution” value [3] of the same compound?
A: The value was 494 nm.

Q: What about the “Molar extinction coefficient” value [3] of the same compound?
A: Its value is 5.8 × 10^4 L · mo 1^−1.

Q: And the “Solubilities(/100 g, toluene)” value [4]?
A: The value was over 4 g/100 g toluene.

Q: Which “Absorption peak of the film” value [2] does the source give for `CCCCCCCCc1ccc(-c2cc(N(c3ccc(C(C)(C)C)cc3)c3ccc(C(C)(C)C)cc3)ccc2N(c2cc(F)c(F)c(F)c2)c2cc(N(c3cc(F)c(F)c(F)c3)c3ccc(N(c4ccc(C(C)(C)C)cc4)c4ccc(C(C)(C)C)cc4)cc3-c3ccc(CCCCCCCC)cc3)c3ccc4c(N(c5cc(F)c(F)c(F)c5)c5ccc(N(c6ccc(C(C)(C)C)cc6)c6ccc(C(C)(C)C)cc6)cc5-c5ccc(CCCCCCCC)cc5)cc(N(c5cc(F)c(F)c(F)c5)c5ccc(N(c6ccc(C(C)(C)C)cc6)c6ccc(C(C)(C)C)cc6)cc5-c5ccc(CCCCCCCC)cc5)c5ccc2c3c54)cc1` [compound 18] here?
A: Its value is 487 nm.

Q: And the “Emission peak of the film” value [2]?
A: The value was 518 nm.

Q: What about the “Absorption peak of the toluene solution” value [3] of the same compound?
A: The value was 492 nm.

Q: What about the “Emission peak of the toluene solution” value [3] of the same compound?
A: The value was 520 nm.

Q: And the “Molar extinction coefficient” value [3]?
A: Its value is 5.1 × 10^4 L · mo 1^−1.

Q: What about the “Solubilities(/100 g, toluene)” value [4] of the same compound?
A: Its value is over 10 g/100 g toluene.
